According to patent US3971814A, “Benzo(b)thiophene derivatives” (priority 1972, dated 1976):

Columns and labels:
[1] = test system: Yeast Edema of the Rat Paw; test: Yeast edema and determination of pain threshold in the rat paw; assay type: in vivo; settings: 3 h; for Volume (increase in paw volume, blank control = 100%) / Pain Threshold (change vs initial value): i.g.
Protocol: test animals are male rats (SIV 50) weighing 100 to 180 g. […] 10 animals belonged to each dosage group.
The volume of the paw is determined according to the method described by Enders and Heidbrink, the pain threshold according to that described by Randall and Selitto (Arch. Int. Pharmacodyn CXI: 409, 1957).
Following initial measurements, […] of a 5% suspension of dried yeast is injected subplantarly into the right paw and the test substances are administered immediately. The blank control group is given Tragacanth mucilage only. After 3 hours the pain threshold and the volume of the paw are determined again.
The mean value of the increase in paw volume of the animals of the blank control after 3 hours is rated 100%, and the mean value of the increase in paw volume of the animals of the substance groups expressed as a percentage thereof. Pain threshold after 3 hours reflects the increase or decrease in percent, compared to the initial value.
In order to be able to calculate the ED50 according to the method by Lichtfield and Wilcoxon (J.P.E.T. 96:99, 1949), those animals in a dose group are considered protected when the paw swelling was at least 40% less than that of the blank control.

[2] = test system: Carrageenin Edema of the Rat Paw; test: Carrageenin edema of the rat paw; assay type: in vivo
Protocol: test animals used are the same as stated under Example B and up to the initial measurement, the procedure corresponded to that described under this example.
After an initial measurement, the test substances are administered and after 60 minutes a 1% Carrageenin suspension is injected subplantarly (0.1 ml/paw). After 60 and 180 minutes the paw volume is again determined. Here, too, the blank control group was treated with the carrier alone.
The increase in the volume of the paw after 60 minutes is considered as the first phase of the biphase edema and that after 180 minutes, as compared to the 60-minute-value, as the second phase. Moreover, the total increase of the paw edema within 180 minutes, as compared to the initial value, is also determined.
Determination of the influence exerted by the substances upon the development of the paw edema and calculation of the ED50 are done as under Example B.

[3] = test system: Kaolin Edema of the Rat Paw; test: Kaolin edema of the rat paw; assay type: in vivo; settings: for 60 min. (paw edema) / 120 min. (paw edema) / 180 min. (paw edema): ig., section K
Protocol: test animals used are the same as stated under Example B and up to the beginning of the test, the procedure corresponded to that described under this example.
After an initial measurement, a sterile 25% kaolin suspension was injected (0.05 ml/paw) subplantarly. The test substances are administered immediately, and after 60, 120, and 180 minutes the paw volume is again determined.
Evaluation of the tests was performed as stated under Example C, and the results so obtained presented below: […]

Granulation Tissue = test: Cotton-pellet test (granulation tissue); assay type: in vivo; settings: rat, i.g.
Protocol: test animals are male rats (SIV 50) weighing 110 to 200 g. All test animals are kept fasting for 16 to 18 hours prior to the implantation of the pellets; after that food and water were available ad libitum. Each dose level of the chemical tested was administered to 12 animals. The substances were suspended in 1% Tragacanth mucilage and administered intragastrically by means of a stomach tube. The substances to be investigated and the control suspensions are administered once on the operating day following operation, and twice a day on the following 6 days (at intervals of 6 to 8 hours). The type of application and volume of liquid corresponded to that under B.
Under light ether anesthesia 4 sterile cotton pellets were implanted under the skin on the back of the animal. The weight of one pellet was 50 mg ± 0.5 mg. After 7 days treatment, the animals were sacrificed, the pellets removed with the granulation tissue, weighed and then dried in the incubator at +80°C to constant weight. The average dry weight of the granulation tissue of the control group was rated 100%, and deviations of the mean weights of the group treated with the test substance determined as a percentage thereof.
The weight of the animals is measured daily throughout the tests, and the percental increase determined. At the end of some tests, moreover, the suprarenal glands are removed and their weight determined.

Granuloma Pouch = test: Granuloma pouch test; assay type: in vivo; settings: rat, i.g., 2 × 150 mg/kg daily
Protocol: Under light ether anesthesia 25 ml of air are injected under the shaved skin of the back. 0.5 ml of croton oil/animal (0.05%) are injected into the pouch formed by the air, and evenly distributed over the back by turning the animal.
On the third day croton oil (3%, 0.5 ml/animal) is again injected into this pouch.
The average dry weights of the granuloma pouches and the quantities of secretion of the groups subjected to treatment are then compared with those of the control group and the percental deviations calculated.
At the end of some tests the suprarenal glands are removed and the weight of these organs is also determined.
The weight of the animals is measured daily and the changes determined as a percentage.

male mice (NMRI) = test: Hot-plate test (analgesia); assay type: in vivo; settings: mouse, i.g.
Protocol: male mice (NMRI) weighing 18 to 28 g are used as test animals. The animals are placed on a copper plate constantly kept at 55°C, and the time is measured until they lick their forepaws.
Following 3 initial measurements, the test substances are administered intragastrically. Afterwards the measurements are repeated over a period of 2 hours at intervals of 30 minutes. Each dose is administered to 10 animals selected from groups of 15 animals following the initial measurements.
The test substances are administered as a suspension in 1% Tragacanth mucilage, the volume of liquid amounting to 2 ml/100 g of body weight.
For the purpose of statistical evaluation according to Litchfield and Wilcoxon, those animals in which the reaction time has been extended by at least 100% are considered protected.

[4] = Summary: calculated ED50 and therapeutic ratio; assay type: in vivo, rat
Protocol: From the ED50 and LD50 (A) the following therapeutic ratios for this test are calculated: […]

[5] = test system: Arthritis Induced by the Freund Adjuvant; test: Adjuvant arthritis; assay type: in vivo; settings: rat, i.g., 2 × 250.0 mg/kg
Protocol: test animals used are the same as described under Example E; food and water is given ad libitum.
On the first day of the test a 0.8% suspension of Mycobacterium butyrium in paraffin (0.05 or 0.1 ml/paw) is injected subplantarly into the left hind paw of the animals. […] From the 19th to the 22nd day the animals showing a reaction are treated intragastrically with the test substances. The right paw having been marked above the ankle-joint, the volume is determined daily from the 19th to the 22nd or 23rd day, according to the process described under Example B.
The volume of liquid, as well as of the carrier administered, corresponded to that described in the above tests.

in vivo = settings: mouse, po
[6] = po, ig., section K, read-out: volume (paw, control = 100%)

CC(=O)Oc1ccccc1C(=O)O [Acetylsalicylic Acid, acetylsalicylic acid]
Volume (increase in paw volume, blank control = 100%) ([1]; 150.0 mg/kg): 134% | Pain Threshold (change vs initial value) ([1]; 300.0 mg/kg): -15% | Volume (increase in paw volume, blank control = 100%) ([1]; 300.0 mg/kg): 81% | 1st Phase (paw edema) ([2]; 100.0 mg/kg): 83% | 2nd Phase (paw edema) ([2]; 100.0 mg/kg): 114% | 3 Hrs. (total paw edema) ([2]; 100.0 mg/kg): 96% | 1st Phase (paw edema) ([2]; 200.0 mg/kg): 95% | 2nd Phase (paw edema) ([2]; 200.0 mg/kg): 60% | 3 Hrs. (total paw edema) ([2]; 200.0 mg/kg): 76% | 60 Minutes (paw edema) ([3]; 300.0 mg/kg): 156% | 120 Minutes (paw edema) ([3]; 300.0 mg/kg): 93% | 180 Minutes (paw edema) ([3]; 300.0 mg/kg): 82% | 60 min. (paw edema) ([3]; 300 mg/kg): 156% | 120 min. (paw edema) ([3]; 300 mg/kg): 93% | 180 min. (paw edema) ([3]; 300 mg/kg): 82% | Granulation Tissue % (Dry Weight) (Granulation Tissue; 2 × 200 mg/kg daily): 89% | Increase in Body Weight (Granulation Tissue; 2 × 200 mg/kg daily): not influenced | Granuloma Pouch Dry Weight (Granuloma Pouch): 88% | Increase in Body Weight (Granuloma Pouch): not influenced | Secretion (Granuloma Pouch): 121% | Notes (analgesic activity) (male mice (NMRI); up to 400 mg/kg): ineffective | ED50 ([4]; Rattus norvegicus): 192 mg/kg | therapeutic ratio ([4]; from ED50 and LD50 (A)): 10.7

CCCC1C(=O)N2C(N(C)C)=Nc3ccc(C)cc3N2C1=O (centres unmarked) [Azapropazone, 3-Dimethylamino-7-methyl-1,2-(n-propylmalonyl)-1,2-dihydro-1,2-benzotriazine-dihydrate]
Volume (increase in paw volume, blank control = 100%) ([1]; 250.0 mg/kg): 98% | Pain Threshold (change vs initial value) ([1]; 400.0 mg/kg): -52% | Volume (increase in paw volume, blank control = 100%) ([1]; 400.0 mg/kg): 100% | 1st Phase (paw edema) ([2]; 100.0 mg/kg): 72% | 2nd Phase (paw edema) ([2]; 100.0 mg/kg): 50% | 3 Hrs. (total paw edema) ([2]; 100.0 mg/kg): 63% | 1st Phase (paw edema) ([2]; 400.0 mg/kg): 79% | 2nd Phase (paw edema) ([2]; 400.0 mg/kg): 21% | 3 Hrs. (total paw edema) ([2]; 400.0 mg/kg): 55% | 60 Minutes (paw edema) ([3]; 250.0 mg/kg): 100% | 120 Minutes (paw edema) ([3]; 250.0 mg/kg): 93% | 180 Minutes (paw edema) ([3]; 250.0 mg/kg): 67% | Granulation Tissue % (Dry Weight) (Granulation Tissue; 2 × 150 mg/kg daily): 76% | Increase in Body Weight (Granulation Tissue; 2 × 150 mg/kg daily): not influenced | Swelling [5]: 91% | Notes (analgesic activity) (male mice (NMRI)): ineffective

COC(=N)c1sc2ccccc2c1O [Example 1, Methyl 3-Hydroxy-Benzo[b]Thiopene-2-Carboximidate]
change in vivo at 75 mg/kg ([1]; po, ig., 75 mg/kg, section K (control -23)): -10% | response vs control in vivo at 75 mg/kg ([1]; po, ig., 75 mg/kg, section K (control pain -23), read-out: volume (paw, control = 100%)): 32% | LD50 (in vivo): > 1600 mg/kg

COCCOC(=N)c1sc2ccccc2c1O [Example 10]
change in vivo at 200 mg/kg ([1]; po, ig., section K): -49% | response vs control in vivo at 200 mg/kg [1, 6]: 73% | change in vivo at 250 mg/kg ([1]; po, ig., 250 mg/kg, section K (control -35)): -30% | response vs control in vivo at 250 mg/kg ([1]; po, ig., 250 mg/kg, section K, read-out: volume (paw, control = 100%)): 33% | 60 min. (paw edema) ([3]; 200 mg/kg): 67% | 120 min. (paw edema) ([3]; 200 mg/kg): 47% | 180 min. (paw edema) ([3]; 200 mg/kg): 46% | LD50 (in vivo): ~1600 mg/kg

CCOCCOC(=N)c1sc2ccccc2c1O [Example 11]
change in vivo at 200 mg/kg ([1]; po, ig., section K): 32% | response vs control in vivo at 200 mg/kg [1, 6]: 41% | 60 min. (paw edema) ([3]; 50 mg/kg): 40% | 120 min. (paw edema) ([3]; 50 mg/kg): 36% | 180 min. (paw edema) ([3]; 50 mg/kg): 56% | 60 min. (paw edema) ([3]; 100 mg/kg): 22% | 120 min. (paw edema) ([3]; 100 mg/kg): 27% | 180 min. (paw edema) ([3]; 100 mg/kg): 46% | LD50 (in vivo): > 1600 mg/kg
